The results in this text go back to patent publication US7473699B2, “3-cyclyl-5-(nitrogen-containing 5-membered ring)methyl-oxazolidinone derivatives and their use as antibacterial agents” (AstraZeneca AB, priority 2002, dated 2009).

Values after ≈ are worked out from the molar mass of the structure shown. Where two headings read alike, the source gives them in different places.

The subject of test [1] is Staphylococcus aureus MRQR. The test can be described thus: MIC, agar-dilution, Staphylococcus aureus MRQR. To be noted: Staphylococcus aureus MRQR (methicillin resistant and quinolone resistant). Type of test: cell-based. The protocol: (§1) The following results were obtained on a standard in-vitro test system. The activity is described in terms of the minimum inhibitory concentration (MIC) determined by the agar-dilution technique with an inoculum size of 10^4 CFU/spot. Typically, compounds are active in the range 0.01 to 256 μg/ml.
(§2) Staphylococci were tested on agar, using an inoculum of 10^4 CFU/spot and an incubation temperature of 37° C. for 24 hours—standard test conditions for the expression of methicillin resistance.

The subject of the next test is Streptococcus pyogenes. The test can be described thus: MIC, agar-dilution, Streptococcus pyogenes. Type of test: cell-based. As to the method:
as §1
(§3) Streptococci and enterococci were tested on agar supplemented with 5% defibrinated horse blood, an inoculum of 10^4 CFU/spot and an incubation temperature of 37° C. in an atmosphere of 5% carbon dioxide for 48 hours—blood is required for the growth of some of the test organisms. Fastidious Gram negative organisms were tested in Mueller-Hinton broth, supplemented with hemin and NAD, grown aerobically for 24 hours at 37° C., and with an innoculum of 5×10^4 CFU/well.

A further test has as its target T1, MAO-A (Homo sapiens, UniProt P21397).
T1 construct: made in house; host or cells: yeast
T1 sequence (P21397 1-527): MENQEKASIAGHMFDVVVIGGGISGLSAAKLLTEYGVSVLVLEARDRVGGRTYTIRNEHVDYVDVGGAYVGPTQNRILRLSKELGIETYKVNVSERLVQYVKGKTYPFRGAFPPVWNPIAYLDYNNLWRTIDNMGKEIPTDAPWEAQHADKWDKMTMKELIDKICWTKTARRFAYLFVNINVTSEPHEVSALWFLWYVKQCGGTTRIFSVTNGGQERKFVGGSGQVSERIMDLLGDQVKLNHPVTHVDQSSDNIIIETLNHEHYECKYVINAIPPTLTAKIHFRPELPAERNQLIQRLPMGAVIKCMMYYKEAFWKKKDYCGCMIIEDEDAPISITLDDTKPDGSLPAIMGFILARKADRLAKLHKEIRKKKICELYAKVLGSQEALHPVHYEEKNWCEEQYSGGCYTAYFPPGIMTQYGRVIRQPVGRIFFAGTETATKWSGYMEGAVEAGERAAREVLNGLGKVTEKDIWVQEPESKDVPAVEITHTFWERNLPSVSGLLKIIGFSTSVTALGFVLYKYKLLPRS
The test can be described thus: MAO-A standard in-vitro assay, human liver enzyme expressed in yeast. Format: biochemical. The protocol: The activity of the compounds of the invention against MAO-A was tested using a standard in-vitro assay based on human liver enzyme expressed in yeast as described in Biochem. Biophys. Res. Commun. 1991, 181, 1084-1088. Ki values were determined using serial two-fold dilutions from […] to 0.04 μM.

The test system of the next test is Haemophilus influenzae. The test can be described thus: MIC, fastidious Gram negative organisms in Mueller-Hinton broth, Haemophilus influenzae. Format: cell-based. As to the method: as §1, §3
Another test deals with Streptococcus pneumoniae. Put plainly: MIC, agar-dilution, Streptococcus pneumoniae. Type of test: cell-based. The protocol:
as §1, §3

Test [2] has as its system Staphylococcus aureus MSQS. The test can be described thus: MIC, agar-dilution, Staphylococcus aureus MSQS. Format: cell-based. To be noted: Staphylococcus aureus MSQS (methicillin sensitive and quinolone sensitive). The protocol: as §1, §2
In a further test the test system is Moraxella catarrhalis. Put plainly: MIC, fastidious Gram negative organisms in Mueller-Hinton broth, Moraxella catarrhalis. Format: cell-based. The protocol:
as §1, §3

[3] abbreviates: first line (strain not given), read-out: MIC.

On to `Cc1cn(C[C@H]2CN(c3ccc(C4=CC[S+]([O-])CC4)c(F)c3)C(=O)O2)nn1` (mixture of isomers) [Example 1, (5R)-3-[4-(1(R,S)-Oxo-3,6-dihydro-2H-thiopyran-4-yl)-3-fluorophenyl]-5-[(4-methyl)-1,2,3-triazol-1-ylmethyl]oxazolidin-2-one], for which the MIC is 4 µg/mL in test [1]; 1 µg/mL against Streptococcus pyogenes; 2 µg/mL in the test on Haemophilus influenzae; 0.5 µg/mL with Streptococcus pneumoniae (setting [3]); 0.5 µg/mL in the test on Streptococcus pneumoniae (second line (strain not given)); 2 µg/mL in test [2]. Moreover, in the test on Moraxella catarrhalis, the MIC came to 2 µg/mL. Moreover, affinity on MAO-A was put at a Ki of 16 µM.

Turning to `O=C1O[C@@H](Cn2ccnn2)CN1c1ccc(C2=CC[S+]([O-])CC2)c(F)c1` (some centres unmarked) [Reference Example 1], the MIC came out at 2 µg/mL (≈ 5.31 µM) in test [1]; 1 µg/mL (≈ 2.66 µM) against Streptococcus pyogenes; 4 µg/mL (≈ 10.6 µM) in the test on Haemophilus influenzae; 1 µg/mL (≈ 2.66 µM) with Streptococcus pneumoniae (setting [3]); 1 µg/mL (≈ 2.66 µM) against Streptococcus pneumoniae (second line (strain not given)); 2 µg/mL (≈ 5.31 µM) in test [2]. Also, in the test with Moraxella catarrhalis, the MIC is 2 µg/mL (≈ 5.31 µM). At MAO-A, this molecule came in with an inhibition constant (Ki) of 3.6 µM.

At MAO-A, `CC(=O)NC[C@H]1CN(c2ccc(C3=CC[S+]([O-])CC3)c(F)c2)C(=O)O1` (some centres unmarked) [Reference Example 2] yielded a Ki of 0.5 µM.

The Ki is a measure of affinity in units of concentration, obtained from inhibition or displacement.
